# Where “and” joins values, the source holds several entries; their conditions need not be identical. Equal entries are not always repeated.
# Test system: Salmonella Typhimurium strain TA98
# Type: cell-based
substance,measurement,value
Aflatoxin B1 [AFB1 control],MR,13.75 and 12.35
same,Number of mutant colonies/plate,383 ± 65 colonies/plate
same,The number of mutant colonies/plate,385 ± 97 colonies/plate

# From patent US7695751B2 (priority 2004, dated 2010)
